# Reference: PubChem BioAssay (NCI)
#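 Values below derive from 48-hour exposures of cells grown in 96-well plates, with endpoints linearly interpolated between the two concentrations bracketing the appropriate inhibition level. GI50: concentration for 50% inhibition of growth. TGI denotes the concentration required for complete inhibition of growth.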
# How the values were obtained:
# Test in all cases: NCI-60 cell line screen, 48 h
# SN12C renal = system: SN12C renal
# A549 NSCLC = system: A549 NSCLC
# U251 CNS = system: U251 CNS
# SW-620 colon = system: SW-620 colon
# CAKI-1 renal = system: CAKI-1 renal
# HS 578T breast = system: HS 578T breast
# K-562 leukemia = system: K-562 leukemia
# SNB-75 CNS = system: SNB-75 CNS
# HCT-116 colon = system: HCT-116 colon
# HCT-15 colon = system: HCT-15 colon
# BT-549 breast = system: BT-549 breast
# SR leukemia = system: SR leukemia
# RPMI-8226 leukemia = system: RPMI-8226 leukemia
# SF-539 CNS = system: SF-539 CNS
# HOP-62 NSCLC = system: HOP-62 NSCLC
# OVCAR-5 ovarian = system: OVCAR-5 ovarian
# MDA-MB-231 breast = system: MDA-MB-231 breast
# NCI/ADR-RES ovarian = system: NCI/ADR-RES ovarian
# HCC-2998 colon = system: HCC-2998 colon
# EKVX NSCLC = system: EKVX NSCLC
# UACC-62 melanoma = system: UACC-62 melanoma
# COLO 205 colon = system: COLO 205 colon
# NCI-H460 lung = system: NCI-H460 lung
# SNB-19 CNS = system: SNB-19 CNS
# T-47D breast = system: T-47D breast
# A498 renal = system: A498 renal
# NCI-H522 lung = system: NCI-H522 lung
# MOLT-4 leukemia = system: MOLT-4 leukemia
# IGROV1 ovarian = system: IGROV1 ovarian
# HL-60(TB) leukemia = system: HL-60(TB) leukemia
# HT29 colon = system: HT29 colon
# LOX IMVI melanoma = system: LOX IMVI melanoma
# OVCAR-3 ovarian = system: OVCAR-3 ovarian
# SK-MEL-5 melanoma = system: SK-MEL-5 melanoma
# SK-OV-3 ovarian = system: SK-OV-3 ovarian
# OVCAR-4 ovarian = system: OVCAR-4 ovarian
# MCF7 breast = system: MCF7 breast
# SF-295 CNS = system: SF-295 CNS
# SK-MEL-28 melanoma = system: SK-MEL-28 melanoma
# SF-268 CNS = system: SF-268 CNS
# TK-10 renal = system: TK-10 renal
# MDA-MB-435 = system: MDA-MB-435
# CCRF-CEM leukemia = system: CCRF-CEM leukemia
# UO-31 renal = system: UO-31 renal
# HOP-92 NSCLC = system: HOP-92 NSCLC
# DU-145 prostate = system: DU-145 prostate
# ACHN renal = system: ACHN renal
# OVCAR-8 ovarian = system: OVCAR-8 ovarian
# M14 melanoma = system: M14 melanoma
# SK-MEL-2 melanoma = system: SK-MEL-2 melanoma
# PC-3 prostate = system: PC-3 prostate
# MALME-3M melanoma = system: MALME-3M melanoma
# KM12 colon = system: KM12 colon
# 786-0 renal = system: 786-0 renal
# RXF 393 renal = system: RXF 393 renal
# UACC-257 melanoma = system: UACC-257 melanoma
# NCI-H23 lung = system: NCI-H23 lung
# NCI-H226 lung = system: NCI-H226 lung
compound,measurement,setting,value
Nc1nc(-c2cccc([N+](=O)[O-])c2)c(N=Nc2ccc(Br)cc2)s1,GI50,SN12C renal,14.1 µM
same,TGI,SN12C renal,37.2 µM
same,GI50,A549 NSCLC,17 µM
same,TGI,A549 NSCLC,35.1 µM
same,GI50,U251 CNS,14.2 µM
same,TGI,U251 CNS,33.6 µM
same,GI50,SW-620 colon,15.4 µM
same,TGI,SW-620 colon,78.8 µM
same,GI50,CAKI-1 renal,12 µM
same,TGI,CAKI-1 renal,24.3 µM
same,GI50,HS 578T breast,19.3 µM
same,TGI,HS 578T breast,> 100 µM
same,GI50,K-562 leukemia,10.3 µM
same,TGI,K-562 leukemia,> 100 µM
same,GI50,SNB-75 CNS,18.4 µM
same,TGI,SNB-75 CNS,41.1 µM
same,GI50,HCT-116 colon,4.63 µM
same,TGI,HCT-116 colon,16 µM
same,GI50,HCT-15 colon,5.57 µM
same,TGI,HCT-15 colon,33.2 µM
same,GI50,BT-549 breast,15.7 µM
same,TGI,BT-549 breast,40.8 µM
same,GI50,SR leukemia,21.6 µM
same,TGI,SR leukemia,> 100 µM
same,GI50,RPMI-8226 leukemia,21 µM
same,TGI,RPMI-8226 leukemia,> 100 µM
same,GI50,SF-539 CNS,3 µM
same,TGI,SF-539 CNS,10.4 µM
same,GI50,HOP-62 NSCLC,15.2 µM
same,TGI,HOP-62 NSCLC,29.8 µM
same,GI50,OVCAR-5 ovarian,20.3 µM
same,TGI,OVCAR-5 ovarian,54.4 µM
same,GI50,MDA-MB-231 breast,7.74 µM
same,TGI,MDA-MB-231 breast,24 µM
same,GI50,NCI/ADR-RES ovarian,7.93 µM
same,TGI,NCI/ADR-RES ovarian,> 100 µM
same,GI50,HCC-2998 colon,18.7 µM
same,TGI,HCC-2998 colon,38.8 µM
same,GI50,EKVX NSCLC,17.9 µM
same,TGI,EKVX NSCLC,64.1 µM
same,GI50,UACC-62 melanoma,15.1 µM
same,TGI,UACC-62 melanoma,41.4 µM
same,GI50,COLO 205 colon,24.6 µM
same,TGI,COLO 205 colon,94 µM
same,GI50,NCI-H460 lung,12.8 µM
same,TGI,NCI-H460 lung,44.6 µM
same,GI50,SNB-19 CNS,20.3 µM
same,TGI,SNB-19 CNS,50.1 µM
same,GI50,T-47D breast,9.84 µM
same,TGI,T-47D breast,46 µM
same,GI50,A498 renal,16.7 µM
same,TGI,A498 renal,31.7 µM
same,GI50,NCI-H522 lung,10.9 µM
same,TGI,NCI-H522 lung,35.8 µM
same,GI50,MOLT-4 leukemia,12 µM
same,TGI,MOLT-4 leukemia,> 100 µM
same,GI50,IGROV1 ovarian,16.2 µM
same,TGI,IGROV1 ovarian,47.8 µM
same,GI50,HL-60(TB) leukemia,91.2 µM
same,TGI,HL-60(TB) leukemia,> 100 µM
same,GI50,HT29 colon,19.4 µM
same,TGI,HT29 colon,> 100 µM
same,GI50,LOX IMVI melanoma,4 µM
same,TGI,LOX IMVI melanoma,26.6 µM
same,GI50,OVCAR-3 ovarian,18.6 µM
same,TGI,OVCAR-3 ovarian,41.3 µM
same,GI50,SK-MEL-5 melanoma,16.9 µM
same,TGI,SK-MEL-5 melanoma,31.5 µM
same,GI50,SK-OV-3 ovarian,16 µM
same,TGI,SK-OV-3 ovarian,30.1 µM
same,GI50,OVCAR-4 ovarian,11.1 µM
same,TGI,OVCAR-4 ovarian,63.3 µM
same,GI50,MCF7 breast,12.7 µM
same,TGI,MCF7 breast,> 100 µM
same,GI50,SF-295 CNS,23 µM
same,TGI,SF-295 CNS,49.8 µM
same,GI50,SK-MEL-28 melanoma,18.7 µM
same,TGI,SK-MEL-28 melanoma,47 µM
same,GI50,SF-268 CNS,19.1 µM
same,TGI,SF-268 CNS,99.4 µM
same,GI50,TK-10 renal,21.6 µM
same,TGI,TK-10 renal,36.5 µM
same,GI50,MDA-MB-435,20.5 µM
same,TGI,MDA-MB-435,57.2 µM
same,GI50,CCRF-CEM leukemia,13.4 µM
same,TGI,CCRF-CEM leukemia,> 100 µM
same,GI50,UO-31 renal,12.7 µM
same,TGI,UO-31 renal,25.2 µM
same,GI50,HOP-92 NSCLC,10.1 µM
same,TGI,HOP-92 NSCLC,32.1 µM
same,GI50,DU-145 prostate,8.14 µM
same,TGI,DU-145 prostate,25.8 µM
same,GI50,ACHN renal,14.2 µM
same,TGI,ACHN renal,27.3 µM
same,GI50,OVCAR-8 ovarian,10.2 µM
same,TGI,OVCAR-8 ovarian,33.6 µM
same,GI50,M14 melanoma,17.3 µM
same,TGI,M14 melanoma,38.8 µM
same,GI50,SK-MEL-2 melanoma,18.6 µM
same,TGI,SK-MEL-2 melanoma,51.8 µM
same,GI50,PC-3 prostate,20.2 µM
same,TGI,PC-3 prostate,86 µM
same,GI50,MALME-3M melanoma,16.3 µM
same,TGI,MALME-3M melanoma,30.5 µM
same,GI50,KM12 colon,16.1 µM
same,TGI,KM12 colon,> 100 µM
same,GI50,786-0 renal,13.6 µM
same,TGI,786-0 renal,27.5 µM
same,GI50,RXF 393 renal,12.6 µM
same,TGI,RXF 393 renal,25.4 µM
same,GI50,UACC-257 melanoma,22.4 µM
same,TGI,UACC-257 melanoma,50.8 µM
C#C[C@]1(O)CC[C@H]2[C@@H]3CC=C4c5sc(Nc6cc(Cl)ccc6OC)nc5CC[C@]4(C)[C@H]3CC[C@@]21C,GI50,A549 NSCLC,2.86 µM
same,TGI,A549 NSCLC,> 100 µM
same,GI50,SW-620 colon,1.67 µM
same,TGI,SW-620 colon,3.86 µM
same,GI50,CAKI-1 renal,1.52 µM
same,TGI,CAKI-1 renal,4.15 µM
same,GI50,HS 578T breast,0.486 µM
same,TGI,HS 578T breast,5.87 µM
same,GI50,K-562 leukemia,0.581 µM
same,TGI,K-562 leukemia,9.42 µM
same,GI50,HCT-116 colon,1.13 µM
same,TGI,HCT-116 colon,2.56 µM
same,GI50,HCT-15 colon,1.33 µM
same,TGI,HCT-15 colon,3.26 µM
same,GI50,BT-549 breast,0.797 µM
same,TGI,BT-549 breast,5.46 µM
same,GI50,SR leukemia,0.578 µM
same,TGI,SR leukemia,4.51 µM
same,GI50,RPMI-8226 leukemia,0.251 µM
same,TGI,RPMI-8226 leukemia,0.684 µM
same,GI50,SF-539 CNS,0.359 µM
same,TGI,SF-539 CNS,1.46 µM
same,GI50,HOP-62 NSCLC,2.56 µM
same,TGI,HOP-62 NSCLC,> 100 µM
same,GI50,NCI-H23 lung,1.81 µM
same,TGI,NCI-H23 lung,> 100 µM
same,GI50,MDA-MB-231 breast,1.96 µM
same,TGI,MDA-MB-231 breast,4.88 µM
same,GI50,NCI/ADR-RES ovarian,2.52 µM
same,TGI,NCI/ADR-RES ovarian,48.8 µM
same,GI50,HCC-2998 colon,1.75 µM
same,TGI,HCC-2998 colon,3.39 µM
same,GI50,EKVX NSCLC,1.63 µM
same,TGI,EKVX NSCLC,6.39 µM
same,GI50,COLO 205 colon,2.19 µM
same,TGI,COLO 205 colon,4.39 µM
same,GI50,T-47D breast,2.41 µM
same,TGI,T-47D breast,> 100 µM
same,GI50,A498 renal,0.219 µM
same,TGI,A498 renal,1.05 µM
same,GI50,MOLT-4 leukemia,0.454 µM
same,TGI,MOLT-4 leukemia,4.6 µM
same,GI50,IGROV1 ovarian,1.79 µM
same,TGI,IGROV1 ovarian,5.64 µM
same,GI50,HL-60(TB) leukemia,0.84 µM
same,TGI,HL-60(TB) leukemia,3.96 µM
same,GI50,HT29 colon,1.79 µM
same,TGI,HT29 colon,4.86 µM
same,GI50,LOX IMVI melanoma,1.38 µM
same,TGI,LOX IMVI melanoma,2.88 µM
same,GI50,OVCAR-3 ovarian,1.64 µM
same,TGI,OVCAR-3 ovarian,3.56 µM
same,GI50,SK-MEL-5 melanoma,1.93 µM
same,TGI,SK-MEL-5 melanoma,4.05 µM
same,GI50,SK-OV-3 ovarian,4.27 µM
same,TGI,SK-OV-3 ovarian,> 100 µM
same,GI50,OVCAR-4 ovarian,3.54 µM
same,TGI,OVCAR-4 ovarian,> 100 µM
same,GI50,MCF7 breast,0.808 µM
same,TGI,MCF7 breast,2.35 µM
same,GI50,NCI-H226 lung,1.62 µM
same,TGI,NCI-H226 lung,3.51 µM
same,GI50,SF-295 CNS,0.306 µM
same,TGI,SF-295 CNS,1.12 µM
same,GI50,SK-MEL-28 melanoma,0.42 µM
same,TGI,SK-MEL-28 melanoma,1.66 µM
same,GI50,SF-268 CNS,2.21 µM
same,TGI,SF-268 CNS,> 100 µM
same,GI50,MDA-MB-435,1.89 µM
same,TGI,MDA-MB-435,5.41 µM
same,GI50,UO-31 renal,1.45 µM
same,TGI,UO-31 renal,3.04 µM
same,GI50,HOP-92 NSCLC,2.47 µM
same,TGI,HOP-92 NSCLC,6.75 µM
same,GI50,OVCAR-8 ovarian,3.55 µM
same,TGI,OVCAR-8 ovarian,> 100 µM
same,GI50,M14 melanoma,1.4 µM
same,TGI,M14 melanoma,4.93 µM
same,GI50,SK-MEL-2 melanoma,1.3 µM
same,TGI,SK-MEL-2 melanoma,4.61 µM
same,GI50,MALME-3M melanoma,1.33 µM
same,TGI,MALME-3M melanoma,3.7 µM
same,GI50,KM12 colon,1.97 µM
same,TGI,KM12 colon,4.35 µM
same,GI50,786-0 renal,0.381 µM
same,TGI,786-0 renal,1.97 µM
same,GI50,RXF 393 renal,0.178 µM
same,TGI,RXF 393 renal,0.503 µM
